Experimental data reported in PubChem BioAssay (NCI).
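Each compound was tested at five concentrations against cells in 96-well plates for 48 hours. GI50 marks 50% less growth. TGI marks complete inhibition of growth.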

Assays:
Assay in all cases: DTP human tumour cell line panel, 48 h
[1] = test system: OVCAR-8 ovarian
[2] = test system: SF-268 CNS
[3] = test system: A549 NSCLC
[4] = test system: KM12 colon
[5] = test system: UACC-62 melanoma
[6] = test system: HT29 colon
[7] = test system: MOLT-4 leukemia
[8] = test system: HL-60(TB) leukemia
[9] = test system: HOP-92 NSCLC
[10] = test system: NCI-H23 lung

| Compound | TGI [1] | TGI [2] | TGI [3] | TGI [4] | TGI [5] | TGI [6] | TGI [7] | TGI [8] | TGI [9] | TGI [10] | GI50 [1] | GI50 [2] | GI50 [4] | GI50 [6] | GI50 [7] | GI50 [8] | GI50 [9] |
| --- | --- | --- | --- | --- | --- | --- | --- | --- | --- | --- | --- | --- | --- | --- | --- | --- | --- |
| COc1ccc(C2=[S+]C(c3ccccc3)(c3ccccc3)c3ccccc32)cc1 | > 100 µM | > 100 µM | > 100 µM | 31.1 µM | 53.6 µM | 30.3 µM | 61 µM | 51.1 µM | 39.4 µM | 74.8 µM | – | – | – | – | – | – | – |
| O=C1C(CO)=C[C@H](O)[C@H]2O[C@@H]12 | 325 µM | 298 µM | > 394 µM | 219 µM | 215 µM | > 625 µM | 355 µM | 253 µM | 525 µM | 588 µM | – | – | – | – | – | – | – |
| c1cc2c3c(c1)c1cc4c(cc1c[n+]3CC2)OCO4 | 25.3 µM | 5.26 µM | 10.2 µM | 27.8 µM | 16 µM | 67 µM | 9.96 µM | 24.7 µM | 106 µM | 13.8 µM | – | – | – | – | – | – | – |
| c1ccc2c(c1)c1ccccc1n2Cn1c2ccccc2c2ccccc21 | > 100 µM | > 100 µM | > 100 µM | > 100 µM | > 100 µM | > 100 µM | > 100 µM | > 100 µM | > 100 µM | > 100 µM | – | – | – | – | – | – | – |
| COc1cccc2c1C(=O)c1c(O)c3c(c(O)c1C2=O)C[C@@](O)(C(=O)COC(=O)c1ccccc1)C[C@@H]3OC1CC(N)C(O)C(C)O1 (stereo partly specified) | 1.18 µM | 1.34 µM | – | 1.23 µM | – | 0.273 µM | 0.275 µM | 0.69 µM | 0.392 µM | – | 0.154 µM | 0.173 µM | 0.215 µM | 0.102 µM | 0.0302 µM | 0.0679 µM | 0.0638 µM |
| Cc1ccc(Cl)cc1N=NC(=O)NNc1cc(Cl)ccc1C | – | – | – | > 100 µM | 24.2 µM | 80.6 µM | > 100 µM | > 100 µM | 35.8 µM | 44.3 µM | – | – | – | – | – | – | – |
| O=C(NN1C(=O)C(Cl)C1c1cccc([N+](=O)[O-])c1)c1ccccc1O (stereo unspecified) | > 100 µM | > 100 µM | > 100 µM | > 100 µM | > 100 µM | > 100 µM | > 100 µM | > 100 µM | > 100 µM | > 100 µM | – | – | – | – | – | – | – |
| COc1cc(-c2ccc(N=Nc3ccc4c(S(=O)(=O)O)cc(S(=O)(=O)O)c(N)c4c3O)c(OC)c2)ccc1N=Nc1ccc2c(S(=O)(=O)O)cc(S(=O)(=O)O)c(N)c2c1O | > 100 µM | > 100 µM | > 100 µM | > 100 µM | > 100 µM | > 100 µM | > 100 µM | > 62.6 µM | > 100 µM | > 100 µM | – | – | – | – | – | – | – |
